Laboratory results taken from publication PMC4774911, “Biochemical Screening of Five Protein Kinases from Plasmodium falciparum against 14,000 Cell-Active Compounds” (PLoS ONE, 2016).
Values joined by “and” are separate entries in the source; they are usually repeats but may differ in a detail not shown here. Equal entries are not always repeated.

Legend:
Assay in all cases: biochemical
[1] = biological target: PIM2 (Homo sapiens, UniProt Q9P1W9)
[2] = biological target: CDK7 (Homo sapiens, UniProt P50613)
[3] = biological target: T1, TTK (Homo sapiens, UniProt P33981)
T1 sequence (P33981 1-857): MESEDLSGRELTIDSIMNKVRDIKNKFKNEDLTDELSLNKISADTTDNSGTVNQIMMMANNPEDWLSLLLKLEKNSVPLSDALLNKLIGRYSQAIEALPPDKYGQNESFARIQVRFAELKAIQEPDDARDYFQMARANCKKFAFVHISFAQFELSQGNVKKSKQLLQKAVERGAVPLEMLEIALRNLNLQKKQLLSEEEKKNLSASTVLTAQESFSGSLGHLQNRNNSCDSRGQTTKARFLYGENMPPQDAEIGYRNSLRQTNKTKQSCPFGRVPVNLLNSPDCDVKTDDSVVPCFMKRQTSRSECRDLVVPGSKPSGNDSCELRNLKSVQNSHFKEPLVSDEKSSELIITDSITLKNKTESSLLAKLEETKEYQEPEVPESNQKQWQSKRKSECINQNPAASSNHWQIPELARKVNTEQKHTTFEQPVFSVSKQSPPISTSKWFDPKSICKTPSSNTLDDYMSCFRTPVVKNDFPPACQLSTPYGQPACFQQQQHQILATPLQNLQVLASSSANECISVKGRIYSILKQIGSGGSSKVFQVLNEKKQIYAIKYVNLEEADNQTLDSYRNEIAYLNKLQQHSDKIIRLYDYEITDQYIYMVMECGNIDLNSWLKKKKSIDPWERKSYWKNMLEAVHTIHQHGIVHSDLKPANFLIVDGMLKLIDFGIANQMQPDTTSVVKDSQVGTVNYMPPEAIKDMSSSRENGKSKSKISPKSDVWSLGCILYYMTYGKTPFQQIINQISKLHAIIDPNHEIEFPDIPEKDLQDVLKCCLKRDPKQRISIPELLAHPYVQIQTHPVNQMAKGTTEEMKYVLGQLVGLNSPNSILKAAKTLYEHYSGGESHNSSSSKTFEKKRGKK

[4] = biological target: T2, MAP3K6 (Homo sapiens, UniProt O95382)
T2 sequence (O95382 1-1288): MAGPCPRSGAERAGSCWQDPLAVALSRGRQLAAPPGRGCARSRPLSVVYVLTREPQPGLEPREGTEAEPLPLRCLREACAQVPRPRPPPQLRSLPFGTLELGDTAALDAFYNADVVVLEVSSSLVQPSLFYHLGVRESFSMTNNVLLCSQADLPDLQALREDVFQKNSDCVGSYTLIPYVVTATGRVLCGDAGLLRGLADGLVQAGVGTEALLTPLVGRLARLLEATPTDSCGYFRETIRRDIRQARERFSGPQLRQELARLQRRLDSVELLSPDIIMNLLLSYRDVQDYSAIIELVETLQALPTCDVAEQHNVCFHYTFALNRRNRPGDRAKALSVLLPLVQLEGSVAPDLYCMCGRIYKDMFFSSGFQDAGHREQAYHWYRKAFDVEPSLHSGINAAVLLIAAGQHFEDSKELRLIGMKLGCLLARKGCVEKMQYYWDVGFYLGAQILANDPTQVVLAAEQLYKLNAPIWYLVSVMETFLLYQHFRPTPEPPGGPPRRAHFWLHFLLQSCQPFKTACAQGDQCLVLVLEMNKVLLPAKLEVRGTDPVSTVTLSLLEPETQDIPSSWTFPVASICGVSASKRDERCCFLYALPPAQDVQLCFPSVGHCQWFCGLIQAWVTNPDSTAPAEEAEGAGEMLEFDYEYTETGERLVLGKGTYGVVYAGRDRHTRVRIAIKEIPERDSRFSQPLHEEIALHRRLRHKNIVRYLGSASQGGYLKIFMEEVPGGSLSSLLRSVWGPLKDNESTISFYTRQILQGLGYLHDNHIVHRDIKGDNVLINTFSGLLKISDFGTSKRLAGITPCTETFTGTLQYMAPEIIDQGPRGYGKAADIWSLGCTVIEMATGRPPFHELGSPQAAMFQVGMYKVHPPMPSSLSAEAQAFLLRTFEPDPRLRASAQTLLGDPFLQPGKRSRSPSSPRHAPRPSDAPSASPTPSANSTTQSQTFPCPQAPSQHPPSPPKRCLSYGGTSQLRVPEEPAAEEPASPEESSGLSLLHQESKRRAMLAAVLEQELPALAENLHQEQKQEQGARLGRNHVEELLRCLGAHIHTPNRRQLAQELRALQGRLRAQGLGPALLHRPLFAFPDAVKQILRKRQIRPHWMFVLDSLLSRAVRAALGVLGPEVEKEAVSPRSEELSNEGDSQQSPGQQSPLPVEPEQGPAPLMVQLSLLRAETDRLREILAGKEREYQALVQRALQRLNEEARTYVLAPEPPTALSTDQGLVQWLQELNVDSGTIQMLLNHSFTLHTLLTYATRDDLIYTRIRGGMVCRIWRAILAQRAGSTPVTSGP

[5] = biological target: STK39 (Homo sapiens, UniProt Q9UEW8)
[6] = biological target: T3, ULK3 (Homo sapiens, UniProt Q6PHR2)
T3 sequence (Q6PHR2 1-472): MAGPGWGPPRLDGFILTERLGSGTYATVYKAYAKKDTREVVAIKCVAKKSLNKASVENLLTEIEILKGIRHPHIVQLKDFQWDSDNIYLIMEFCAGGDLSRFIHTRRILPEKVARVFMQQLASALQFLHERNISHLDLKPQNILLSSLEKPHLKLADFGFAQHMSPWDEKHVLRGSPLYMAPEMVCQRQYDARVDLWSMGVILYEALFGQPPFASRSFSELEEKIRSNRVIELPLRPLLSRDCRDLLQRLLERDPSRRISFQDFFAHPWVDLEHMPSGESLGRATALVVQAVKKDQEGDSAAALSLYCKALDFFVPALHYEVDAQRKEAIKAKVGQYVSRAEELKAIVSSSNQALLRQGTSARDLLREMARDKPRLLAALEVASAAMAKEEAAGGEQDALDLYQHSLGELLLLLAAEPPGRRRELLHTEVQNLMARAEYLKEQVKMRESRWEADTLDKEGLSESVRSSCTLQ

[7] = biological target: STK38 (Homo sapiens, UniProt Q15208)
[8] = biological target: NTRK1 (Homo sapiens, UniProt P04629)
[9] = biological target: CSNK1D (Homo sapiens, UniProt P48730)
Sequence of CSNK1D (P48730 whole entry): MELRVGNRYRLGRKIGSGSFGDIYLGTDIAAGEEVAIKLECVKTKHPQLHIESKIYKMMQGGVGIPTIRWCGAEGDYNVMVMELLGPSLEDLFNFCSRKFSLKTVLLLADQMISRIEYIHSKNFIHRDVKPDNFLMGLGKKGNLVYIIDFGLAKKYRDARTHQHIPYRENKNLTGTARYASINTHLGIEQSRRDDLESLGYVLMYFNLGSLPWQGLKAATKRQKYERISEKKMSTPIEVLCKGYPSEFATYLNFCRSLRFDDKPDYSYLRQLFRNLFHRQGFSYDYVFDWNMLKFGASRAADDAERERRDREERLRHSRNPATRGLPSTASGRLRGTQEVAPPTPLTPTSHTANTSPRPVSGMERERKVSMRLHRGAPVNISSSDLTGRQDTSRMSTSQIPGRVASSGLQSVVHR

Sequence of PIM2 (Q9P1W9 whole entry): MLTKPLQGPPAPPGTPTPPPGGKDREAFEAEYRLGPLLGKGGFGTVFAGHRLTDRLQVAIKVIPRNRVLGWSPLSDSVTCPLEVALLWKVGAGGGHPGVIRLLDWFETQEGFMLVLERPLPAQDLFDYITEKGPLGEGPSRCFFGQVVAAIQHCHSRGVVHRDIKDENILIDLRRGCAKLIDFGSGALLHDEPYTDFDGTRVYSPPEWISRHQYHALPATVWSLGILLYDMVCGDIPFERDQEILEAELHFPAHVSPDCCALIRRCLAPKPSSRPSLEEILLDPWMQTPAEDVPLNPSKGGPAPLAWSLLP
Sequence of CDK7 (P50613 whole entry): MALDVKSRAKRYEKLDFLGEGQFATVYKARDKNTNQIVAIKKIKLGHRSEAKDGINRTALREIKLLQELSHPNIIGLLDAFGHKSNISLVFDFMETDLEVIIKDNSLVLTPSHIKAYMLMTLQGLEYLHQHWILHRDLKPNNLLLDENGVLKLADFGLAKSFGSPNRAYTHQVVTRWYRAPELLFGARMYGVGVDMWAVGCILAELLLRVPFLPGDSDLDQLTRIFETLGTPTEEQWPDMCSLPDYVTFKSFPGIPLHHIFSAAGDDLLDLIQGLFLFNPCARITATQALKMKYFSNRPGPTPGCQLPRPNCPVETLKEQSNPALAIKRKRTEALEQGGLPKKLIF
Sequence of NTRK1 (P04629 whole entry): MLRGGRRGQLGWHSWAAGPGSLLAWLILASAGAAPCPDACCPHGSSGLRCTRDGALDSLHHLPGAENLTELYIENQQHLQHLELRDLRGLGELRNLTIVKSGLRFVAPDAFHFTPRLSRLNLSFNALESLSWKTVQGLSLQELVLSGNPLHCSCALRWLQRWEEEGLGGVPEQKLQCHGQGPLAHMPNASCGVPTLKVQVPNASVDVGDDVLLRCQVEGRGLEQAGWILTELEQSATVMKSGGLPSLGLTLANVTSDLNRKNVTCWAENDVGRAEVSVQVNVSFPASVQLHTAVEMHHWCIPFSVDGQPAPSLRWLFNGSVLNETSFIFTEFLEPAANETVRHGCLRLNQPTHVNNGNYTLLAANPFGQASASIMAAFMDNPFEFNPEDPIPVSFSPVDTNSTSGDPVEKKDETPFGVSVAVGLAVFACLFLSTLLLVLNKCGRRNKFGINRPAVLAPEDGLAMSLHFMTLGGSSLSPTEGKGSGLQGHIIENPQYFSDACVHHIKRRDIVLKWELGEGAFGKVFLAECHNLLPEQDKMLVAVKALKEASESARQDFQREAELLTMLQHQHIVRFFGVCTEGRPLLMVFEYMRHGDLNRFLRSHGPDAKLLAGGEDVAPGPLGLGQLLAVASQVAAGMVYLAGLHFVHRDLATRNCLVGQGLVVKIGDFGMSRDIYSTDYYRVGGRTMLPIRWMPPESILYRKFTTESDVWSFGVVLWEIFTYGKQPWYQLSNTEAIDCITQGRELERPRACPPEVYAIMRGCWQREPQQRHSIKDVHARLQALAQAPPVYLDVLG
Sequence of STK38 (Q15208 whole entry): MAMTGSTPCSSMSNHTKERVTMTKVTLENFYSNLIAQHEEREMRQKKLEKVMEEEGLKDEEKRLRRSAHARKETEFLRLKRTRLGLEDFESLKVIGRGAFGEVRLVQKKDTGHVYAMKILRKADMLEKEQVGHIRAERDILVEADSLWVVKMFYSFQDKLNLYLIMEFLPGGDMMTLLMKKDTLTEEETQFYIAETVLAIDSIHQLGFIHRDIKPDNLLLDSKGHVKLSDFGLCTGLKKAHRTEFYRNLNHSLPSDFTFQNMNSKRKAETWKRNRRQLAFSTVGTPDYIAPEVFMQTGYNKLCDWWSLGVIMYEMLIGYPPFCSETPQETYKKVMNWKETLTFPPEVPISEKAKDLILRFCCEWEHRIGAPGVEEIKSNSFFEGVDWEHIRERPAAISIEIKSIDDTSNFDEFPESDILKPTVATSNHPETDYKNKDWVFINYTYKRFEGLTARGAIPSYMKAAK

Row | SMILES | IC50 [1] | IC50 [2] | IC50 [3] | IC50 [4] | IC50 [5] | IC50 [6] | IC50 [7] | IC50 [8] | IC50 [9]
1 | CN1CCN(c2ccc(Nc3ncc(C#N)c(Nc4ccccc4C(N)=O)n3)cc2)CC1.Cl [TCMDC-134116] | 4800 nM | 530 nM and 620 nM | 540 nM and 440 nM | 1600 nM and 1400 nM | 67 nM | 60 nM and 95 nM | 350 nM and 290 nM | 2200 nM and 1500 nM | 1800 nM
2 | Cl.NCC1(c2nc(-c3ccc(Cl)c(O)c3)c(-c3ccncc3)[nH]2)CCCCC1 [TCMDC-141154] | > 20000 nM | > 20000 nM | > 20000 nM | > 20000 nM | > 20000 nM | > 20000 nM | > 20000 nM | > 20000 nM | 69 nM and 79 nM
3 | CN(C)CC(O)COc1ccc(Nc2ncc([N+](=O)[O-])c(Nc3ccccc3O)n2)cc1.O=C(O)C(F)(F)F (stereo not drawn) [TCMDC-141399] | > 20000 nM | 1800 nM and 5800 nM | > 20000 nM | > 20000 nM | 5500 nM | > 20000 nM | > 20000 nM | > 20000 nM | > 20000 nM
